Tests used:
[1] = test system: T47D (PI3Kα H1047R mutant) cells; assay: CellTiter-Glo 2.0 luminescent cell viability assay, 72 hours, T47D cells; assay type: cell-based; conditions: Homo sapiens, T47D, 72 h, T47D (PI3Kα H1047R mutant) cells, CellTiter-Glo, approximately 72 hours; read-out: T47D (H1047R mutant) Viability IC50
Procedure, shortened: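 Viability was measured by CellTiter-Glo 2.0 luminescence after approximately 72 h of compound exposure at 37° C. Plating was 1000 cells per well the day before dosing, with ten 1:4 dilutions from a 10 µM top concentration. Values as percent of vehicle were fitted by variable-slope log(inhibitor) regression to give IC50.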

[2] = test system: SKBR3 (PI3Kα wild type) cells; assay: CellTiter-Glo 2.0 luminescent cell viability assay, 72 hours, SKBR3 cells; assay type: cell-based; conditions: Homo sapiens, SK-BR-3, 72 h, SKBR3 (PI3Kα wild type) cells, CellTiter-Glo, approximately 72 hours; read-out: SKBR3 (WT) Viability IC50
Procedure, shortened: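 Viability measured via CTG luminescence following roughly 72 hours of compound exposure at 37° C. Dosing used a 10 um starting concentration diluted 1:4 over 10 points; percent-of-vehicle data fitted with a variable-slope four-parameter model for IC50.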

Compound | IC50 [1] | IC50 [2]
Cc1cc([C@@H](C)Nc2ccccc2C(=O)O)c2nc(NCC3CC3(F)F)c(C#N)c(=O)n2c1 (stereo partly drawn) [Example 11-158, 2-(((1R)-1-(3-cyano-2-(((2,2-difluorocyclopropyl)methyl)amino)-7-methyl-4-oxo-4H-pyrido[1,2-a]pyrimidin-9-yl)ethyl)amino)benzoic acid] | 167 nM | > 10000 nM
Cc1cc([C@@H](C)Nc2ccccc2C(=O)O)c2nc(N3CC(C#N)C3)c(C#N)c(=O)n2c1 [Example 11-109, (R)-2-((1-(3-cyano-2-(3-cyanoazetidin-1-yl)-7-methyl-4-oxo-4H-pyrido[1,2-a]pyrimidin-9-yl)ethyl)amino)benzoic acid] | 1330 nM | > 10000 nM
Cc1cc([C@@H](C)Nc2ccccc2C(=O)O)c2nc(N3CC(O)C4CCCCC43)c(C)c(=O)n2c1 (stereo partly drawn) [Example 11-31, 2-(((1R)-1-(2-(3-hydroxyoctahydro-1H-indol-1-yl)-3,7-dimethyl-4-oxo-4H-pyrido[1,2-a]pyrimidin-9-yl)ethyl)amino)benzoic acid] | 328 nM | > 10000 nM
Cc1cc([C@@H](C)Nc2cccn(C)c2=O)c2nc(N3CCCCC3)c(C)c(=O)n2c1 [Example 11-278, (R)-3,7-dimethyl-9-(1-((1-methyl-2-oxo-1,2-dihydropyridin-3-yl)amino)ethyl)-2-(piperidin-1-yl)-4H-pyrido[1,2-a]pyrimidin-4-one] | 8350 nM | > 10000 nM
CC(Nc1ccccc1C(=O)O)c1cc(C(F)F)cn2c(=O)c(C#N)c(N3CCC(F)(F)CC3)nc12 (centres unmarked) [Example 11-170, 2-((1-(3-cyano-7-(difluoromethyl)-2-(4,4-difluoropiperidin-1-yl)-4-oxo-4H-pyrido[1,2-a]pyrimidin-9-yl)ethyl)amino)benzoic acid] | 166 nM | > 10000 nM
CO[C@H]1CN(c2nc3c([C@@H](C)Nc4ccccc4C(=O)O)cc(C)cn3c(=O)c2C#N)CC1(F)F [Example 11-116, 2-(((R)-1-(3-cyano-2-((S)-3,3-difluoro-4-methoxypyrrolidin-1-yl)-7-methyl-4-oxo-4H-pyrido[1,2-a]pyrimidin-9-yl)ethyl)amino)benzoic acid] | 156 nM | > 10000 nM
Cc1cc(C(C)Nc2ccccc2C(=O)O)c2nc(N3C4CCC3CC4)cc(=O)n2c1 (centres unmarked) [Example 11-344, 2-((1-(2-(7-azabicyclo[2.2.1]heptan-7-yl)-7-methyl-4-oxo-4H-pyrido[1,2-a]pyrimidin-9-yl)ethyl)amino)benzoic acid] | 2150 nM | > 10000 nM
Cc1cc(C(C)Nc2ccc(C(=O)O)cc2)c2nc(N3CCCCC3)cc(=O)n2c1 (centres unmarked) [Example 11-388, 4-((1-(7-methyl-4-oxo-2-(piperidin-1-yl)-4H-pyrido [1,2-a]pyrimidin-9-yl)ethyl)amino)benzoic acid] | > 10000 nM | > 10000 nM
Cc1cc(C(C)Nc2ccccc2C(=O)O)c2nc(OC3CCOC3)cc(=O)n2c1 (centres unmarked) [Example 11-371, 2-((1-(7-methyl-4-oxo-2-((tetrahydrofuran-3-yl)oxy)-4H-pyrido[1,2-a]pyrimidin-9-yl)ethyl)amino)benzoic acid] | 9070 nM | 3040 nM
Cc1cc([C@@H](C)Nc2ccccc2C(=O)O)c2nc(N3C4CCC3CN(c3ccc(C#N)cc3)C4)c(C)c(=O)n2c1 [Example 11-183, 2-(((1R)-1-(2-(3-(4-cyanophenyl)-3,8-diazabicyclo[3.2.1]octan-8-yl)-3,7-dimethyl-4-oxo-4H-pyrido[1,2-a]pyrimidin-9-yl)ethyl)amino)benzoic acid] | 197 nM | > 10000 nM
Cc1cc([C@@H](C)Nc2ccccc2C(=O)O)c2nc(-c3cccc(C(C)(C)C#N)c3)cc(=O)n2c1 [Example 11-239, (R)-2-((1-(2-(3-(2-cyanopropan-2-yl)phenyl)-7-methyl-4-oxo-4H-pyrido[1,2-a]pyrimidin-9-yl)ethyl)amino)benzoic acid] | 2970 nM | > 10000 nM
C[C@@H](Nc1ccc(Cl)nc1C(=O)O)c1cc(Cl)cn2c(=O)c(C#N)c(N3CCC(F)(F)CC3)nc12 [Example 11-50, (R)-6-chloro-3-((1-(7-chloro-3-cyano-2-(4,4-difluoropiperidin-1-yl)-4-oxo-4H-pyrido[1,2-a]pyrimidin-9-yl)ethyl)amino)picolinic acid] | 217 nM | > 10000 nM
Cc1cc([C@@H](C)Nc2ccccc2C(=O)O)c2nc(NCC3(C(F)(F)F)CC3)c(C#N)c(=O)n2c1 [Example 11-159, (R)-2-((1-(3-cyano-7-methyl-4-oxo-2-(((1-(trifluoromethyl)cyclopropyl)methyl)amino)-4H-pyrido[1,2-a]pyrimidin-9-yl)ethyl)amino)benzoic acid] | 176 nM | > 10000 nM
Cc1cc([C@@H](C)Nc2ccccc2C(=O)O)c2nc(N3C4CCC3c3ccccc34)c(C)c(=O)n2c1 [Example 11-215, 2-(((1R)-1-(3,7-dimethyl-4-oxo-2-(1,2,3,4-tetrahydro-1,4-epiminonaphthalen-9-yl)-4H-pyrido[1,2-a]pyrimidin-9-yl)ethyl)amino)benzoic acid] | 303 nM | > 10000 nM

Second part, the molecule after the results:

IC50 [1] | IC50 [2] | Compound
188 nM | > 10000 nM | Cc1cc([C@@H](C)Nc2ccccc2C(=O)O)c2nc(N3CCN(c4cccc(C#N)c4C)CC3)c(C)c(=O)n2c1 [Example 11-438, (R)-2-((1-(2-(4-(3-cyano-2-methylphenyl)piperazin-1-yl)-3,7-dimethyl-4-oxo-4H-pyrido[1,2-a]pyrimidin-9-yl)ethyl)amino)benzoic acid]
> 10000 nM | > 10000 nM | Cc1cc([C@@H](C)Nc2ccccc2C(=O)O)c2nc(N3CCn4c(nnc4C(F)(F)F)C3)c(C)c(=O)n2c1 [Example 11-217, (R)-2-((1-(3,7-dimethyl-4-oxo-2-(3-(trifluoromethyl)-5,6-dihydro-[1,2,4]triazolo[4,3-a]pyrazin-7(8H)-yl)-4H-pyrido[1,2-a]pyrimidin-9-yl)ethyl)amino)benzoic acid]
482 nM | > 10000 nM | Cc1cc([C@@H](C)Nc2ccccc2C(=O)O)c2nc(N3CCN(c4ccc(C(N)=O)cc4)CC3)c(C)c(=O)n2c1 [Example 11-250, (R)-2-((1-(2-(4-(4-carbamoylphenyl)piperazin-1-yl)-3,7-dimethyl-4-oxo-4H-pyrido[1,2-a]pyrimidin-9-yl)ethyl)amino)benzoic acid]
117 nM | > 10000 nM | Cc1cc([C@@H](C)Nc2ccccc2C(=O)O)c2nc(N3CCC4(CC3)CC4)c(C#N)c(=O)n2c1 [Example 11-220, (R)-2-((1-(3-cyano-7-methyl-4-oxo-2-(6-azaspiro[2.5]octan-6-yl)-4H-pyrido[1,2-a]pyrimidin-9-yl)ethyl)amino)benzoic acid]
579 nM | > 10000 nM | Cc1cc([C@@H](C)Nc2ccccc2C(=O)O)c2nc(N3CCN(c4ccc(C(F)(F)F)cc4C#N)CC3C)c(C)c(=O)n2c1 (stereo partly drawn) [Example 11-81, 2-(((1R)-1-(2-(4-(2-cyano-4-(trifluoromethyl)phenyl)-2-methylpiperazin-1-yl)-3,7-dimethyl-4-oxo-4H-pyrido[1,2-a]pyrimidin-9-yl)ethyl)amino)benzoic acid]
122 nM | > 10000 nM | Cc1cc([C@@H](C)Nc2ccccc2C(=O)O)c2nc(N3CCC(n4cccn4)CC3)c(C)c(=O)n2c1 [Example 11-432, (R)-2-((1-(2-(4-(1H-pyrazol-1-yl)piperidin-1-yl)-3,7-dimethyl-4-oxo-4H-pyrido[1,2-a]pyrimidin-9-yl)ethyl)amino)benzoic acid]
> 10000 nM | > 10000 nM | Cc1cc([C@@H](C)Nc2ccccc2C(=O)O)c2nc(N3CCNCC3)c(C#N)c(=O)n2c1 [Example 11-296, (R)-2-((1-(3-cyano-7-methyl-4-oxo-2-(piperazin-1-yl)-4H-pyrido[1,2-a]pyrimidin-9-yl)ethyl)amino)benzoic acid]
145 nM | > 10000 nM | Cc1cc([C@@H](C)Nc2ccccc2C(=O)O)c2nc(N3CC(F)(F)C4(CC4)C3)c(C)c(=O)n2c1 [Example 11-61, (R)-2-((1-(2-(7,7-difluoro-5-azaspiro[2.4]heptan-5-yl)-3,7-dimethyl-4-oxo-4H-pyrido[1,2-a]pyrimidin-9-yl)ethyl)amino)benzoic acid]
172 nM | > 10000 nM | Cc1cc([C@@H](C)Nc2ccc(Cl)nc2C(=O)O)c2nc(N3CCN(c4ccc(C#N)cc4C)CC3)c(C#N)c(=O)n2c1 [Example 11-132, (R)-6-chloro-3-((1-(3-cyano-2-(4-(4-cyano-2-methylphenyl)piperazin-1-yl)-7-methyl-4-oxo-4H-pyrido[1,2-a]pyrimidin-9-yl)ethyl)amino)picolinic acid]
141 nM | > 10000 nM | Cc1cc([C@@H](C)Nc2ccccc2C(=O)O)c2nc(N3CCN(c4ccc(C#N)cc4)CC3)c(C#N)c(=O)n2c1 [Example 11-272, (R)-2-((1-(3-cyano-2-(4-(4-cyanophenyl)piperazin-1-yl)-7-methyl-4-oxo-4H-pyrido[1,2-a]pyrimidin-9-yl)ethyl)amino)benzoic acid]
119 nM | > 10000 nM | Cc1cc([C@@H](C)Nc2ccccc2C(=O)O)c2nc(N3CCC(F)(F)C3)c(C)c(=O)n2c1 [Example 11-140, (R)-2-((1-(2-(3,3-difluoropyrrolidin-1-yl)-3,7-dimethyl-4-oxo-4H-pyrido[1,2-a]pyrimidin-9-yl)ethyl)amino)benzoic acid]

— patent US20260078120A1, “SUBSTITUTED PYRIDOPYRIMIDINONES” (MIRATI THERAPEUTICS, INC., priority 2022, published 2026)
